Test results taken from paper PMC5218480 (PLoS ONE, 2017).

Tested on: MV-4-11 cells
Assay: Gene expression microarray analysis (Affymetrix PrimeView) and GSEA
Type: cell-based, human
Set-up: RFU PODN (11730768_x_at) / Fold change /veh PODN (11730768_x_at) / RFU LINC00158 (11744669_a_at) / Fold change /veh LINC00158 (11744669_a_at) / RFU DUSP10 (11751237_a_at) / Fold change /veh DUSP10 (11751237_a_at) / RFU ID3 (11757404_x_at) / Fold change /veh ID3 (11757404_x_at) / RFU PLEKHG5 (11737974_s_at) / Fold change /veh PLEKHG5 (11737974_s_at) / RFU LRRC4B (11730491_at) / Fold change /veh LRRC4B (11730491_at) / RFU GIMAP4 (11747438_a_at) / Fold change /veh GIMAP4 (11747438_a_at) / RFU KRT8 (11758183_x_at) / Fold change /veh KRT8 (11758183_x_at) / RFU CNN1 (11734310_a_at) / Fold change /veh CNN1 (11734310_a_at) / RFU VPS37D (11726825_at) / Fold change /veh VPS37D (11726825_at) / RFU C10orf10 (11716522_x_at) / Fold change /veh C10orf10 (11716522_x_at) / RFU KIR2DL2 /// KIR2DL4 /// KIR2DL5A /// KIR2DL5B /// KIR2DS1 /// KIR2DS2 /// KIR2DS3 /// KIR2DS4 /// KIR3DL3 /// KIR3DL3 /// KIR3DS1 (11738374_at) / Fold change /veh KIR2DL2 /// KIR2DL4 /// KIR2DL5A /// KIR2DL5B /// KIR2DS1 /// KIR2DS2 /// KIR2DS3 /// KIR2DS4 /// KIR3DL3 /// KIR3DL3 /// KIR3DS1 (11738374_at) / RFU C1QL1 (11718748_at) / Fold change /veh C1QL1 (11718748_at) / RFU TMPRSS4 (11747572_a_at) / Fold change /veh TMPRSS4 (11747572_a_at) / RFU HAMP (11756126_x_at) / Fold change /veh HAMP (11756126_x_at) / RFU RNFT2 (11725882_a_at) / Fold change /veh RNFT2 (11725882_a_at) / RFU NR4A2 (11747474_a_at) / Fold change /veh NR4A2 (11747474_a_at) / RFU ABCC12 (11746883_a_at) / Fold change /veh ABCC12 (11746883_a_at) / RFU TMEM136 (11760407_x_at) / Fold change /veh TMEM136 (11760407_x_at) / RFU CLDN22 /// WWC2 (11732394_at) / Fold change /veh CLDN22 /// WWC2 (11732394_at) / RFU HLA-DPB1 (11760878_x_at) / Fold change /veh HLA-DPB1 (11760878_x_at) / RFU SPINT1 (11716480_a_at) / Fold change /veh SPINT1 (11716480_a_at) / RFU GAP43 (11754022_s_at) / Fold change /veh GAP43 (11754022_s_at) / RFU A4GNT (11735810_at) / Fold change /veh A4GNT (11735810_at) / RFU PRB3 (11715151_x_at) / Fold change /veh PRB3 (11715151_x_at) / RFU TUBB4B (11761932_at) / Fold change /veh TUBB4B (11761932_at) / RFU CAPN14 (11732068_a_at) / Fold change /veh CAPN14 (11732068_a_at) / RFU TMCC2 (11721928_a_at) / Fold change /veh TMCC2 (11721928_a_at) / RFU IRGQ (11745062_a_at) / Fold change /veh IRGQ (11745062_a_at) / RFU FAM174B (11720279_a_at) / Fold change /veh FAM174B (11720279_a_at) / RFU TMPRSS4 (11748680_a_at) / Fold change /veh TMPRSS4 (11748680_a_at) / RFU FAM212B (11763350_a_at) / Fold change /veh FAM212B (11763350_a_at) / RFU PLEKHG5 (11743358_a_at) / Fold change /veh PLEKHG5 (11743358_a_at) / RFU ZSCAN30 (11745921_a_at) / Fold change /veh ZSCAN30 (11745921_a_at) / RFU CMKLR1 (11741424_a_at) / Fold change /veh CMKLR1 (11741424_a_at) / RFU LOC101060620 /// MAPK8IP1 (11723275_at) / Fold change /veh LOC101060620 /// MAPK8IP1 (11723275_at) / RFU SPTSSB (11747773_x_at) / Fold change /veh SPTSSB (11747773_x_at) / RFU PRSS12 (11739890_at) / Fold change /veh PRSS12 (11739890_at) / RFU BIN1 (11741810_x_at) / Fold change /veh BIN1 (11741810_x_at) / RFU WNT11 (11732464_a_at) / Fold change /veh WNT11 (11732464_a_at) / RFU C10orf10 (11716521_a_at) / Fold change /veh C10orf10 (11716521_a_at) / RFU C5orf56 (11738089_at) / Fold change /veh C5orf56 (11738089_at) / RFU CYB561 (11721691_x_at) / Fold change /veh CYB561 (11721691_x_at) / RFU ANKRD19P (11752326_a_at) / Fold change /veh ANKRD19P (11752326_a_at) / RFU OR2T12 /// OR2T33 /// OR2T8 (11738714_s_at) / Fold change /veh OR2T12 /// OR2T33 /// OR2T8 (11738714_s_at) / RFU VCAN (11748164_a_at) / Fold change /veh VCAN (11748164_a_at) / RFU JSRP1 (11732532_at) / Fold change /veh JSRP1 (11732532_at) / RFU KRTAP10-11 (11738290_x_at) / Fold change /veh KRTAP10-11 (11738290_x_at) / RFU MYO3A (11730013_a_at) / Fold change /veh MYO3A (11730013_a_at) / RFU EBF3 (11725865_a_at) / Fold change /veh EBF3 (11725865_a_at) / RFU CAMK2N1 (11719241_x_at) / Fold change /veh CAMK2N1 (11719241_x_at) / RFU C5orf56 (11738088_a_at) / Fold change /veh C5orf56 (11738088_a_at) / RFU OLFML3 (11715873_a_at) / Fold change /veh OLFML3 (11715873_a_at) / RFU LOC100653217 /// NTM (11731650_a_at) / Fold change /veh LOC100653217 /// NTM (11731650_a_at) / RFU MAPK11 (11762145_a_at) / Fold change /veh MAPK11 (11762145_a_at) / RFU FIZ1 (11724087_x_at) / Fold change /veh FIZ1 (11724087_x_at) / RFU OASL (11726364_x_at) / Fold change /veh OASL (11726364_x_at) / RFU SOX15 (11748057_x_at) / Fold change /veh SOX15 (11748057_x_at) / RFU CD79A (11719716_a_at) / Fold change /veh CD79A (11719716_a_at) / RFU HIST1H1D (11736915_at) / Fold change /veh HIST1H1D (11736915_at) / RFU CASKIN2 (11723855_a_at) / Fold change /veh CASKIN2 (11723855_a_at) / RFU LOC730098 (11760151_x_at) / Fold change /veh LOC730098 (11760151_x_at) / RFU OR4N2 (11742367_at) / Fold change /veh OR4N2 (11742367_at) / RFU PRRT2 (11749266_a_at) / Fold change /veh PRRT2 (11749266_a_at) / RFU SNX32 (11753110_a_at) / Fold change /veh SNX32 (11753110_a_at) / RFU CDHR5 (11726645_a_at) / Fold change /veh CDHR5 (11726645_a_at) / RFU RCAN1 (11760418_a_at) / Fold change /veh RCAN1 (11760418_a_at) / RFU FAM167A (11723789_a_at) / Fold change /veh FAM167A (11723789_a_at) / RFU FAM26E (11764081_at) / Fold change /veh FAM26E (11764081_at) / RFU ISYNA1 (11749810_s_at) / Fold change /veh ISYNA1 (11749810_s_at) / RFU ACY1 (11761880_at) / Fold change /veh ACY1 (11761880_at) / RFU 11764098_at / Fold change /veh 11764098_at / RFU SAMD14 (11745864_x_at) / Fold change /veh SAMD14 (11745864_x_at) / RFU NPB (11741838_a_at) / Fold change /veh NPB (11741838_a_at) / RFU TMPRSS6 (11731388_a_at) / Fold change /veh TMPRSS6 (11731388_a_at) / RFU KRTAP10-2 (11738614_at) / Fold change /veh KRTAP10-2 (11738614_at) / RFU ARHGAP8 /// PRR5-ARHGAP8 (11727945_x_at) / Fold change /veh ARHGAP8 /// PRR5-ARHGAP8 (11727945_x_at) / RFU KRTAP5-7 /// NADSYN1 (11734609_at) / Fold change /veh KRTAP5-7 /// NADSYN1 (11734609_at) / RFU RASL12 (11751679_a_at) / Fold change /veh RASL12 (11751679_a_at) / RFU CDKN2B (11736163_a_at) / Fold change /veh CDKN2B (11736163_a_at) / RFU PRF1 (11729649_at) / Fold change /veh PRF1 (11729649_at) / RFU, ZNF638 /// ZNF638-IT1 / Fold change vs veh, ZNF638 /// ZNF638-IT1 / RFU, PANK3 / Fold change vs veh, PANK3 / RFU, SH3YL1 / Fold change vs veh, SH3YL1 / RFU, ZEB2 / Fold change vs veh, ZEB2 / RFU, NRIP1 / Fold change vs veh, NRIP1 / RFU, PTTG1IP / Fold change vs veh, PTTG1IP / RFU, CAPN2 / Fold change vs veh, CAPN2 / RFU, MED14 / Fold change vs veh, MED14 / RFU, SNORA58 / Fold change vs veh, SNORA58 / RFU, C1orf63 / Fold change vs veh, C1orf63 / RFU, LRRFIP1 / Fold change vs veh, LRRFIP1 / RFU, NDUFAF7 / Fold change vs veh, NDUFAF7 / RFU, SLC12A2 / Fold change vs veh, SLC12A2 / RFU, IBTK / Fold change vs veh, IBTK / RFU, ESF1 / Fold change vs veh, ESF1 / Fold change vs veh, TMEM50B / RFU, TAOK1 / Fold change vs veh, TAOK1 / RFU, ACBD3 / Fold change vs veh, ACBD3 / RFU, TMA16 / Fold change vs veh, TMA16 / RFU, RWDD3 / Fold change vs veh, RWDD3 / RFU, BCAT1 / Fold change vs veh, BCAT1 / RFU, EDEM3 / Fold change vs veh, EDEM3 / RFU, TMEM33 / Fold change vs veh, TMEM33 / RFU, WDR75 / Fold change vs veh, WDR75 / RFU, AHCTF1 / Fold change vs veh, AHCTF1 / RFU, TFRC / Fold change vs veh, TFRC / RFU, ZDHHC17 / Fold change vs veh, ZDHHC17 / RFU, NOM1 / Fold change vs veh, NOM1 / RFU, ARL8B / Fold change vs veh, ARL8B / RFU, ZBTB11 / Fold change vs veh, ZBTB11 / RFU, TAMM41 / Fold change vs veh, TAMM41 / RFU, KIAA1704 /// LOC100996395 / Fold change vs veh, KIAA1704 /// LOC100996395 / RFU, ING1 / Fold change vs veh, ING1 / RFU, TRMT61B / Fold change vs veh, TRMT61B / RFU, FUBP3 / Fold change vs veh, FUBP3 / RFU, TP53 / Fold change vs veh, TP53 / RFU, TNKS2 / Fold change vs veh, TNKS2 / RFU, ZFP14 / Fold change vs veh, ZFP14 / RFU, ACTR2 / Fold change vs veh, ACTR2 / RFU, PPP3R1 / Fold change vs veh, PPP3R1 / RFU, PIK3R1 / Fold change vs veh, PIK3R1 / RFU, HNRNPA1 / Fold change vs veh, HNRNPA1 / RFU, RNF170 / Fold change vs veh, RNF170 / RFU, ZNF28 / Fold change vs veh, ZNF28 / RFU, RNGTT / Fold change vs veh, RNGTT / RFU, OGT / Fold change vs veh, OGT / RFU, BRD1 / Fold change vs veh, BRD1 / RFU, MARS / Fold change vs veh, MARS / RFU, ZNF655 / Fold change vs veh, ZNF655 / RFU, FAHD1 / Fold change vs veh, FAHD1 / RFU, BDP1 / Fold change vs veh, BDP1 / RFU, LRRCC1 / Fold change vs veh, LRRCC1 / RFU, ARID1A / Fold change vs veh, ARID1A / RFU, ZNF146 / Fold change vs veh, ZNF146 / RFU, ZNF330 / Fold change vs veh, ZNF330 / RFU, GPN3 / Fold change vs veh, GPN3 / RFU, C9orf123 / Fold change vs veh, C9orf123 / RFU, N4BP2L2 / Fold change vs veh, N4BP2L2 / RFU, ARFIP1 / Fold change vs veh, ARFIP1 / RFU, FAM179B / Fold change vs veh, FAM179B / RFU, BCL10 / Fold change vs veh, BCL10 / RFU, UHRF1BP1L / Fold change vs veh, UHRF1BP1L / RFU, BET1 / Fold change vs veh, BET1 / RFU, CNOT2 / Fold change vs veh, CNOT2 / RFU, ZNF268 / Fold change vs veh, ZNF268 / Fold change vs veh, ZNF507 / RFU, DGCR2 / Fold change vs veh, DGCR2 / RFU, WDSUB1 / Fold change vs veh, WDSUB1 / Fold change vs veh, HSP90B1 /// MIR3652 / RFU, ADSS / Fold change vs veh, ADSS / RFU, GK / Fold change vs veh, GK / RFU, ZNF148 / Fold change vs veh, ZNF148 / RFU, TAF9 / Fold change vs veh, TAF9 / RFU, SLC1A5 / Fold change vs veh, SLC1A5 / RFU, SLMO2 / Fold change vs veh, SLMO2 / RFU, ABCC4 / Fold change vs veh, ABCC4 / RFU, LOC101060439 /// RAP1B / Fold change vs veh, LOC101060439 /// RAP1B / RFU, RFX7 / Fold change vs veh, RFX7 / RFU, GTPBP10 / Fold change vs veh, GTPBP10 / RFU, CNEP1R1 / Fold change vs veh, CNEP1R1 / RFU, BIVM-ERCC5 /// ERCC5 / Fold change vs veh, BIVM-ERCC5 /// ERCC5 / RFU, ILF3 / Fold change vs veh, ILF3 / RFU 11762660_at / Fold change /veh 11762660_at / RFU VCAN (11757783_s_at) / Fold change /veh VCAN (11757783_s_at) / RFU DDX43 (11728927_at) / Fold change /veh DDX43 (11728927_at) / RFU KRT8 (11758188_x_at) / Fold change /veh KRT8 (11758188_x_at) / RFU NKD1 (11759106_at) / Fold change /veh NKD1 (11759106_at) / RFU SRD5A1 (11742802_a_at) / Fold change /veh SRD5A1 (11742802_a_at) / RFU TPSAB1 /// TPSB2 (11721975_s_at) / Fold change /veh TPSAB1 /// TPSB2 (11721975_s_at) / RFU GSTM3 (11746129_a_at) / Fold change /veh GSTM3 (11746129_a_at) / RFU IL23R (11737362_x_at) / Fold change /veh IL23R (11737362_x_at) / RFU TMEM51 (11727254_a_at) / Fold change /veh TMEM51 (11727254_a_at) / RFU PIWIL2 (11732686_x_at) / Fold change /veh PIWIL2 (11732686_x_at) / RFU ORM1 (11744905_x_at) / Fold change /veh ORM1 (11744905_x_at) / RFU CCDC152 (11743942_at) / Fold change /veh CCDC152 (11743942_at) / RFU ECM1 (11717891_a_at) / Fold change /veh ECM1 (11717891_a_at) / RFU IL23R (11748794_a_at) / Fold change /veh IL23R (11748794_a_at) / RFU TNFAIP8L3 (11732012_x_at) / Fold change /veh TNFAIP8L3 (11732012_x_at) / RFU MBOAT4 (11741988_at) / Fold change /veh MBOAT4 (11741988_at) / RFU 11764193_at / Fold change /veh 11764193_at / RFU TMEM53 (11763286_at) / Fold change /veh TMEM53 (11763286_at) / RFU MAGEB2 (11727129_at) / Fold change /veh MAGEB2 (11727129_at) / RFU TMEM200A (11744735_a_at) / Fold change /veh TMEM200A (11744735_a_at) / RFU CCDC152 (11751479_a_at) / Fold change /veh CCDC152 (11751479_a_at) / RFU FAM211A (11726209_a_at) / Fold change /veh FAM211A (11726209_a_at) / RFU RGS16 (11746705_a_at) / Fold change /veh RGS16 (11746705_a_at) / RFU VCAN (11755009_s_at) / Fold change /veh VCAN (11755009_s_at) / RFU RHOB (11743442_s_at) / Fold change /veh RHOB (11743442_s_at) / RFU RGS16 (11720943_a_at) / Fold change /veh RGS16 (11720943_a_at) / RFU RGS16 (11720944_at) / Fold change /veh RGS16 (11720944_at) / RFU, VPS4B / Fold change vs veh, VPS4B / RFU, CREB1 / Fold change vs veh, CREB1 / RFU, DNAJC13 / Fold change vs veh, DNAJC13 / RFU, GNAQ / Fold change vs veh, GNAQ / RFU, CDK5R1 / Fold change vs veh, CDK5R1 / RFU, ZRANB3 / Fold change vs veh, ZRANB3 / RFU, CUL4A / Fold change vs veh, CUL4A / RFU, CCNY / Fold change vs veh, CCNY / RFU, UFL1 / Fold change vs veh, UFL1 / RFU, COG3 / Fold change vs veh, COG3 / RFU, DIAPH2 / Fold change vs veh, DIAPH2 / RFU, SKA2 / Fold change vs veh, SKA2 / RFU, AFF3 / Fold change vs veh, AFF3 / RFU, LMF1 / Fold change vs veh, LMF1 / RFU, IPO11 / Fold change vs veh, IPO11 / RFU, DFFB / Fold change vs veh, DFFB / RFU, FOXP1 / Fold change vs veh, FOXP1 / RFU, CARD8 / Fold change vs veh, CARD8 / RFU, STRN3 / Fold change vs veh, STRN3 / RFU, ADK / Fold change vs veh, ADK / RFU, RASSF2 / Fold change vs veh, RASSF2 / RFU, WIPF1 / Fold change vs veh, WIPF1 / RFU, LARP1B / Fold change vs veh, LARP1B / RFU, RASA1 / Fold change vs veh, RASA1 / RFU, RB1 / Fold change vs veh, RB1 / RFU, PPFIA1 / Fold change vs veh, PPFIA1 / RFU, MAT2A / Fold change vs veh, MAT2A / RFU, CCT5 / Fold change vs veh, CCT5 / RFU, WDR92 / Fold change vs veh, WDR92 / RFU, CUX1 / Fold change vs veh, CUX1 / RFU, TTC7A / Fold change vs veh, TTC7A / RFU, TMEM135 / Fold change vs veh, TMEM135 / RFU, DEPTOR / Fold change vs veh, DEPTOR / RFU, CPM / Fold change vs veh, CPM / RFU, DNAJB6 / Fold change vs veh, DNAJB6 / RFU, CACNA2D3 / Fold change vs veh, CACNA2D3 / RFU, DTX4 / Fold change vs veh, DTX4 / RFU, TFCP2 / Fold change vs veh, TFCP2 / RFU, GMCL1 /// GMCL1P1 / Fold change vs veh, GMCL1 /// GMCL1P1 / RFU, AEBP2 / Fold change vs veh, AEBP2 / RFU, SNHG1 /// SNORD22 /// SNORD25 /// SNORD26 /// SNORD27 /// SNORD28 /// SNORD29 /// SNORD31 / Fold change vs veh, SNHG1 /// SNORD22 /// SNORD25 /// SNORD26 /// SNORD27 /// SNORD28 /// SNORD29 /// SNORD31 / Fold change (Aza/veh), C12orf56 (ProbeSet 11735607_a_at) / Fold change (ACY-1035/veh), C12orf56 (ProbeSet 11735607_a_at) / Fold change (Aza/veh), FGFR1OP (ProbeSet 11751329_s_at) / Fold change (ACY-1035/veh), FGFR1OP (ProbeSet 11751329_s_at) / Fold change (Aza/veh), VPS36 (ProbeSet 11739960_a_at) / Fold change (ACY-1035/veh), VPS36 (ProbeSet 11739960_a_at) / RFU SYPL1 (11715823_x_at) / Fold change /veh SYPL1 (11715823_x_at) / RFU IGFBP7 (11715501_s_at) / Fold change /veh IGFBP7 (11715501_s_at) / RFU REEP3 (11722064_at) / Fold change /veh REEP3 (11722064_at) / RFU IGLL1 (11728026_x_at) / Fold change /veh IGLL1 (11728026_x_at): dose or concentration left out as unconfirmed
Settings: ProbeSet 11732306_x_at; LIST D

## Nc1ccc(-c2cccs2)cc1NC(=O)c1ccc2c(c1)cc(C1CC1)n2CCN1CCOCC1 [ACY-1035]
  Fold change vs veh, CREB1: 0.87
